Measured values reported in PubChem BioAssay AID256 (DTP/NCI, 2004).
“And” between values parts separate entries of the source, which are not always exact repeats. Equal values may be shown once. Inconclusive results and toxic doses are left out. The calls were made as follows: active = survival T/C of 150% or more; inactive = T/C below 125% in these data.

Test system: CD2F1 mice, L1210 leukemia ip, survival T/C
Test: NCI In Vivo Anticancer Drug Screen. Data for tumor model L1210 Leukemia (intraperitoneal) in CD2F1 (CDF1) mice
Details: higher = longer survival
Procedure, shortened: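 Each value reflects a quotient of treated over vehicle control outcomes in mice with a transplanted tumor.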

[1] = endpoint: mean survival time, dose: 5.0 mg/kg/injection, schedule: Q01DX009 (ip), vehicle: saline with Tween-80
[2] = endpoint: mean survival time, dose: 100.0 mg/kg/injection, schedule: Q01DX001 (ip), vehicle: saline with Tween-80
[3] = endpoint: mean survival time, dose: 200.0 mg/kg/injection, schedule: Q01DX001 (ip), vehicle: saline with Tween-80
[4] = endpoint: mean survival time, dose: 400.0 mg/kg/injection, schedule: Q01DX001 (ip), vehicle: saline with Tween-80
[5] = endpoint: mean survival time, dose: 100.0 mg/kg/injection, schedule: Q04DX003 (ip), vehicle: saline with Tween-80
[6] = endpoint: mean survival time, dose: 200.0 mg/kg/injection, schedule: Q04DX003 (ip), vehicle: saline with Tween-80
[7] = endpoint: mean survival time, dose: 400.0 mg/kg/injection, schedule: Q04DX003 (ip), vehicle: saline with Tween-80
[8] = endpoint: mean survival time, dose: 100.0 mg/kg/injection, schedule: Q01DX009 (ip), vehicle: saline with Tween-80
[9] = endpoint: mean survival time, dose: 200.0 mg/kg/injection, schedule: Q01DX009 (ip), vehicle: saline with Tween-80
[10] = endpoint: mean survival time, dose: 400.0 mg/kg/injection, schedule: Q01DX009 (ip), vehicle: saline with Tween-80
[11] = endpoint: mean survival time, dose: 50.0 mg/kg/injection, schedule: Q01DX009 (ip), vehicle: saline with Tween-80
[12] = endpoint: mean survival time, dose: 100.0 mg/kg/injection, schedule: Q01DX009 (ip), vehicle: Klucel (hydroxypropylcellulose) (HPC)
[13] = endpoint: mean survival time, dose: 75.0 mg/kg/injection, schedule: Q01DX001 (ip), vehicle: saline
[14] = endpoint: mean survival time, dose: 150.0 mg/kg/injection, schedule: Q01DX001 (ip), vehicle: saline
[15] = endpoint: mean survival time, dose: 300.0 mg/kg/injection, schedule: Q01DX001 (ip), vehicle: saline

Measured: T/C

CC(=O)CC(C)=NCC(C)N=C(C)CC(C)=O.c1cc[c]([Sn][c]2ccccc2)cc1 (configuration not stated)
inactive: endpoint: mean survival time, dose: 2.5 mg/kg/injection, schedule: Q01DX009 (ip), vehicle: saline with Tween-80 93 % of control | endpoint: mean survival time, dose: 5.0 mg/kg/injection, schedule: Q01DX001 (ip), vehicle: saline with Tween-80 98 % of control | [1] 107 % of control | endpoint: mean survival time, dose: 10.0 mg/kg/injection, schedule: Q01DX001 (ip), vehicle: saline with Tween-80 103 % of control

COC(=O)[C@@]12OC[C@]34[C@H]([C@@H](O)[C@@H]1O)[C@@]1(C)CC(=O)C(O)=C(C)[C@@H]1C[C@H]3OC(=O)[C@H](OC(=O)/C=C(\C)C(C)C)[C@@H]24
inactive: endpoint: mean survival time, dose: 125.0 micrograms/kg/injection, schedule: Q01DX009 (ip), vehicle: saline + alcohol 120 % of control | endpoint: mean survival time, dose: 250.0 micrograms/kg/injection, schedule: Q01DX009 (ip), vehicle: saline + alcohol 106 % of control | endpoint: mean survival time, dose: 500.0 micrograms/kg/injection, schedule: Q01DX009 (ip), vehicle: saline + alcohol 112 % of control | endpoint: mean survival time, dose: 1000.0 micrograms/kg/injection, schedule: Q01DX009 (ip), vehicle: saline + alcohol 120 % of control | endpoint: median survival time, dose: 0.25 mg/kg/injection, schedule: Q01DX009 (ip), vehicle: saline + alcohol 120 % of control and 122 % of control | endpoint: median survival time, dose: 0.5 mg/kg/injection, schedule: Q01DX009 (ip), vehicle: saline + alcohol 120 % of control

Cc1c2ccccc2c(CN(C)CC(=O)NCC(=O)NCC(=O)O)c2ccccc12
inactive: [2] 103 % of control | [3] 92 % of control | [4] 92 % of control

Cc1c(C)c2ccccc2[nH]c1=O
inactive: [5] 99 % of control | [6] 96 % of control | [7] 100 % of control

Cc1nc(Cl)c(C)c(C(=O)O)n1
inactive: endpoint: mean survival time, dose: 12.5 mg/kg/injection, schedule: Q01DX009 (ip), vehicle: other 98 % of control | endpoint: mean survival time, dose: 25.0 mg/kg/injection, schedule: Q01DX009 (ip), vehicle: other 102 % of control | endpoint: mean survival time, dose: 50.0 mg/kg/injection, schedule: Q01DX009 (ip), vehicle: other 104 % of control | endpoint: mean survival time, dose: 100.0 mg/kg/injection, schedule: Q01DX009 (ip), vehicle: other 96 % of control

CCN(CC)Cc1cc(Nc2nc(NC3CCC(N(C)C)CC3)c3ccccc3n2)ccc1OC (configuration not stated)
inactive: endpoint: mean survival time, dose: 12.5 mg/kg/injection, schedule: Q04DX003 (ip), vehicle: saline 103 % of control | endpoint: mean survival time, dose: 25.0 mg/kg/injection, schedule: Q04DX003 (ip), vehicle: saline 97 % of control | endpoint: mean survival time, dose: 50.0 mg/kg/injection, schedule: Q04DX003 (ip), vehicle: saline 105 % of control

CCc1ccccc1NC(=O)Nc1ccc(N(C)C(C)=O)cc1
inactive: [8] 95 % of control | [9] 93 % of control | [10] 93 % of control

COc1cc(/C=C2\NC(=O)NC2=O)ccc1O
inactive: [2] 94 % of control | [3] 88 % of control | [4] 90 % of control

CN(C)C(=S)Nc1ccc(Cl)cc1
inactive: [5] 98 % of control | [6] 98 % of control | [7] 100 % of control

COc1cc(OC)c(NC(=O)Nc2ccc(N(C)C(C)=O)cc2)cc1Cl
inactive: [11] 88 % of control | [8] 88 % of control | [9] 88 % of control

CCCCCCCCCCCCCCOc1ccc(C(=O)O)cc1
inactive: [12] 93 % of control | [5] 91 % of control | endpoint: mean survival time, dose: 200.0 mg/kg/injection, schedule: Q01DX009 (ip), vehicle: Klucel (hydroxypropylcellulose) (HPC) 93 % of control | [6] 90 % of control | endpoint: mean survival time, dose: 400.0 mg/kg/injection, schedule: Q01DX009 (ip), vehicle: Klucel (hydroxypropylcellulose) (HPC) 93 % of control | [7] 88 % of control

CS(=O)(=O)SC(F)(F)F
inactive: endpoint: mean survival time, dose: 5.0 mg/kg/injection, schedule: Q01DX001 (ip), vehicle: saline 103 % of control

CC(=N)c1ccc(C)cc1
inactive: endpoint: mean survival time, dose: 6.25 mg/kg/injection, schedule: Q01DX001 (ip), vehicle: saline sonified 96 % of control | endpoint: mean survival time, dose: 12.5 mg/kg/injection, schedule: Q01DX001 (ip), vehicle: saline sonified 96 % of control | endpoint: mean survival time, dose: 25.0 mg/kg/injection, schedule: Q01DX001 (ip), vehicle: saline sonified 96 % of control

CCC(=O)O[C@H]1CC[C@H]2[C@@H]3C[C@H](F)C4=CC(=O)CC[C@]4(C)[C@H]3CC[C@]12C
inactive: endpoint: mean survival time, dose: 100.0 mg/kg/injection, schedule: Q04DX003 (ip), vehicle: saline 102 % of control | endpoint: mean survival time, dose: 200.0 mg/kg/injection, schedule: Q04DX003 (ip), vehicle: saline 95 % of control | endpoint: mean survival time, dose: 400.0 mg/kg/injection, schedule: Q04DX003 (ip), vehicle: saline 95 % of control

C[n+]1ccncc1
inactive: endpoint: mean survival time, dose: 100.0 mg/kg/injection, schedule: Q01DX001 (ip), vehicle: saline 102 % of control | endpoint: mean survival time, dose: 200.0 mg/kg/injection, schedule: Q01DX001 (ip), vehicle: saline 102 % of control | endpoint: mean survival time, dose: 400.0 mg/kg/injection, schedule: Q01DX001 (ip), vehicle: saline 104 % of control

COC(=O)c1nc(SC)n(C2OC(COC(=O)c3ccccc3)C(OC(=O)c3ccccc3)C2OC(=O)c2ccccc2)c1CC#N (configuration not stated)
inactive: endpoint: median survival time, dose: 9.13 mg/kg/injection, schedule: Q01DX005 (ip), vehicle: saline with Tween-80 100 % of control | endpoint: median survival time, dose: 18.25 mg/kg/injection, schedule: Q01DX005 (ip), vehicle: saline with Tween-80 98 % of control | endpoint: median survival time, dose: 36.5 mg/kg/injection, schedule: Q01DX005 (ip), vehicle: saline with Tween-80 91 % of control | endpoint: median survival time, dose: 73.0 mg/kg/injection, schedule: Q01DX005 (ip), vehicle: saline with Tween-80 98 % of control | endpoint: median survival time, dose: 146.0 mg/kg/injection, schedule: Q01DX005 (ip), vehicle: saline with Tween-80 96 % of control

CCCCNC1=CC(=O)c2ccccc2C1=O
inactive: [2] 103 % of control | [3] 95 % of control | [4] 92 % of control

CC/C=C(\C)C(CCC)(CN=O)C(=O)OCC (configuration not stated)
inactive: [13] 101 % of control | [14] 97 % of control | [15] 95 % of control

CC(=O)OC(N=Nc1ccccc1)(c1ccccc1)c1ccccc1
inactive: [5] 98 % of control | [6] 92 % of control | [7] 93 % of control

N#Cc1ccc(NCCO)cc1
inactive: [5] 89 % of control | [6] 101 % of control | [7] 91 % of control

CC1CC2CCC1C2O (configuration not stated)
inactive: [13] 98 % of control | [14] 91 % of control | [15] 87 % of control

c1ccc(-c2oc(-c3ccccc3)c3c(-c4ccccc4)cccc23)cc1
inactive: endpoint: mean survival time, dose: 50.0 mg/kg/injection, schedule: Q04DX002 (ip), vehicle: saline with Tween-80 90 % of control | endpoint: mean survival time, dose: 100.0 mg/kg/injection, schedule: Q04DX002 (ip), vehicle: saline with Tween-80 87 % of control | endpoint: mean survival time, dose: 200.0 mg/kg/injection, schedule: Q04DX002 (ip), vehicle: saline with Tween-80 87 % of control

CC(O)CNC1CCCCC1 (configuration not stated)
inactive: endpoint: mean survival time, dose: 25.0 mg/kg/injection, schedule: Q01DX009 (ip), vehicle: saline with Tween-80 97 % of control | [11] 97 % of control | [8] 97 % of control

CN(C)CC1CCCCCC(CN(C)C)C1=O (configuration not stated)
inactive: endpoint: mean survival time, dose: 75.0 mg/kg/injection, schedule: Q01DX001 (ip), vehicle: other 102 % of control | endpoint: mean survival time, dose: 150.0 mg/kg/injection, schedule: Q01DX001 (ip), vehicle: other 106 % of control

COc1ccc(NC(=O)CCl)cc1
inactive: endpoint: mean survival time, dose: 25.0 mg/kg/injection, schedule: Q01DX009 (ip), vehicle: Klucel (hydroxypropylcellulose) (HPC) 96 % of control and 98 % of control | endpoint: mean survival time, dose: 50.0 mg/kg/injection, schedule: Q01DX009 (ip), vehicle: Klucel (hydroxypropylcellulose) (HPC) 96 % of control and 98 % of control | [12] 96 % of control and 104 % of control

CCOC(=O)CCN1CCCC2(C1)OCCO2
inactive: endpoint: mean survival time, dose: 12.5 mg/kg/injection, schedule: Q04DX002 (ip), vehicle: saline 109 % of control | endpoint: mean survival time, dose: 25.0 mg/kg/injection, schedule: Q04DX002 (ip), vehicle: saline 95 % of control | endpoint: mean survival time, dose: 50.0 mg/kg/injection, schedule: Q04DX002 (ip), vehicle: saline 98 % of control

O=C1CCC(=O)N1Br
inactive: [8] 101 % of control | [5] 100 % of control | [9] 96 % of control | [6] 95 % of control | [10] 101 % of control | [7] 91 % of control

Cc1c(C)c(Cl)c(C)c(C)c1Cl
inactive: [1] 98 % of control | endpoint: mean survival time, dose: 5.0 mg/kg/injection, schedule: Q04DX003 (ip), vehicle: saline with Tween-80 100 % of control | endpoint: mean survival time, dose: 10.0 mg/kg/injection, schedule: Q01DX009 (ip), vehicle: saline with Tween-80 104 % of control | endpoint: mean survival time, dose: 10.0 mg/kg/injection, schedule: Q04DX003 (ip), vehicle: saline with Tween-80 100 % of control | endpoint: mean survival time, dose: 20.0 mg/kg/injection, schedule: Q01DX009 (ip), vehicle: saline with Tween-80 98 % of control | endpoint: mean survival time, dose: 20.0 mg/kg/injection, schedule: Q04DX003 (ip), vehicle: saline with Tween-80 105 % of control
